{
  "source": "patent US11117900B2",
  "about": "(Vertex Pharmaceuticals Incorporated, priority 2012, dated 2021)",
  "data": [
    {"test_system": "HCT116 colorectal cancer cells", "assay": "Cisplatin sensitization assay (96 h MTS cell viability);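 note: compound concentration needed to lower the IC50 of Cisplatin alone by a set fold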", "type": "cell-based", "details": "Cisplatin sensitization value", "method_in_brief": "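HCT116 cells were dosed simultaneously with compound and cisplatin as a full matrix of 2-fold serial dilutions from 10 μM top final concentration. Incubation was 96 h at 37° C., 5% CO2, followed by 1 h with MTS reagent for the viability read-out. Sensitization values were binned into +++, ++ and + categories.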", "values": [
      {"smiles": "Cc1ncn(-c2ccncc2NC(=O)c2c(N)nn3cc(F)cnc23)n1", "note": "[I-N-161, 2-amino-6-fluoro-N-(4-(3-methyl-1H-1,2,4-triazol-1-yl)pyridin-3-yl)pyrazolo[1,5-a]pyrimidine-3-carboxamide]", "Cisplatin Sensitization Assay": "+ (Compounds with a Cisplatin sensitization value >0.2 μM but <5 μM are marked with “+.”)"},
      {"smiles": "Cc1ncnn1-c1ccncc1NC(=O)c1c(N)nn2cc(F)cnc12", "note": "[I-N-162, 2-amino-6-fluoro-N-(4-(5-methyl-1H-1,2,4-triazol-1-yl)pyridin-3-yl)pyrazolo[1,5-a]pyrimidine-3-carboxamide]", "Cisplatin Sensitization Assay": "++ (Compounds with a Cisplatin sensitization value >0.02 μM but <0.2 μM are marked with “++.”)"},
      {"smiles": "Nc1nn2cc(F)cnc2c1C(=O)Nc1cncc(F)c1N1CCN2C(=O)CCC2C1", "note": "(stereo not shown) [I-N-163, 2-amino-6-fluoro-N-(5-fluoro-4-(6-oxohexahydropyrrolo[1,2-a]pyrazin-2(1H)-yl)pyridin-3-yl)pyrazolo[1,5-a]pyrimidine-3-carboxamide]", "Cisplatin Sensitization Assay": "+++ (Compounds with a Cisplatin sensitization value of <0.02 μM are marked with “+++.”)"},
      {"smiles": "CN1CC(OC2CCN(c3ccncc3NC(=O)c3c(N)nn4cc(F)cnc34)CC2)C1", "note": "[I-N-164, 2-amino-6-fluoro-N-(4-(4-((1-methylazetidin-3-yl)oxy)piperidin-1-yl)pyridin-3-yl)pyrazolo[1,5-a]pyrimidine-3-carboxamide]", "Cisplatin Sensitization Assay": "+++ (Compounds with a Cisplatin sensitization value of <0.02 μM are marked with “+++.”)"},
      {"smiles": "CS(=O)(=O)C1CCN(c2c(F)cncc2NC(=O)c2c(N)nn3cc(F)cnc23)CC1", "note": "[I-N-165, 2-amino-6-fluoro-N-(5-fluoro-4-(4-(methylsulfonyl)piperidin-1-yl)pyridin-3-yl)pyrazolo[1,5-a]pyrimidine-3-carboxamide]", "Cisplatin Sensitization Assay": "+++ (Compounds with a Cisplatin sensitization value of <0.02 μM are marked with “+++.”)"},
      {"smiles": "CN1CCN(S(=O)(=O)C2CCN(c3c(F)cncc3NC(=O)c3c(N)nn4cc(F)cnc34)CC2)CC1", "note": "[I-N-166, 2-amino-6-fluoro-N-(5-fluoro-4-(4-((4-methylpiperazin-1-yl)sulfonyl)piperidin-1-yl)pyridin-3-yl)pyrazolo[1,5-a]pyrimidine-3-carboxamide]", "Cisplatin Sensitization Assay": "+++ (Compounds with a Cisplatin sensitization value of <0.02 μM are marked with “+++.”)"},
      {"smiles": "Nc1nn2cc(F)cnc2c1C(=O)Nc1cncc(F)c1N1CCC(OCCN2CCCC2)CC1", "note": "[I-N-167, 2-amino-6-fluoro-N-(5-fluoro-4-(4-(2-(pyrrolidin-1-yl)ethoxy)piperidin-1-yl)pyridin-3-yl)pyrazolo[1,5-a]pyrimidine-3-carboxamide]", "Cisplatin Sensitization Assay": "+++ (Compounds with a Cisplatin sensitization value of <0.02 μM are marked with “+++.”)"},
      {"smiles": "Nc1nn2cc(F)cnc2c1C(=O)Nc1cncc(F)c1N1CCN(C(=O)C2CNC2)CC1", "note": "[I-N-168, 2-amino-N-(4-(4-(azetidine-3-carbonyl)piperazin-1-yl)-5-fluoropyridin-3-yl)-6-fluoropyrazolo[1,5-a]pyrimidine-3-carboxamide]", "Cisplatin Sensitization Assay": "+ (Compounds with a Cisplatin sensitization value >0.2 μM but <5 μM are marked with “+.”)"},
      {"smiles": "Nc1nn2cc(F)cnc2c1C(=O)Nc1cncc(F)c1N1CCC(S(=O)(=O)N2CCC2)CC1", "note": "[I-N-169, 2-amino-N-(4-(4-(azetidin-1-ylsulfonyl)piperidin-1-yl)-5-fluoropyridin-3-yl)-6-fluoropyrazolo[1,5-a]pyrimidine-3-carboxamide]", "Cisplatin Sensitization Assay": "+++ (Compounds with a Cisplatin sensitization value of <0.02 μM are marked with “+++.”)"},
      {"smiles": "Nc1nn2cc(F)cnc2c1C(=O)Nc1cnccc1N1CCC(S(=O)(=O)N2CCOCC2)CC1", "note": "[I-N-170, 2-amino-6-fluoro-N-(4-(4-(morpholinosulfonyl)piperidin-1-yl)pyridin-3-yl)pyrazolo[1,5-a]pyrimidine-3-carboxamide]", "Cisplatin Sensitization Assay": "+++ (Compounds with a Cisplatin sensitization value of <0.02 μM are marked with “+++.”)"},
      {"smiles": "CN1CCN(CC2CCN(c3c(F)cncc3NC(=O)c3c(N)nn4cc(F)cnc34)CC2)CC1=O", "note": "[I-N-171, 2-amino-6-fluoro-N-(5-fluoro-4-(4-((4-methyl-3-oxopiperazin-1-yl)methyl)piperidin-1-yl)pyridin-3-yl)pyrazolo[1,5-a]pyrimidine-3-carboxamide]", "Cisplatin Sensitization Assay": "+++ (Compounds with a Cisplatin sensitization value of <0.02 μM are marked with “+++.”)"},
      {"smiles": "Nc1nn2cc(F)cnc2c1C(=O)Nc1cncc(F)c1N1CCN(C(=O)C2CNCCO2)CC1", "note": "(stereo not shown) [I-N-172, 2-amino-6-fluoro-N-(5-fluoro-4-(4-(morpholine-2-carbonyl)piperazin-1-yl)pyridin-3-yl)pyrazolo[1,5-a]pyrimidine-3-carboxamide]", "Cisplatin Sensitization Assay": "+++ (Compounds with a Cisplatin sensitization value of <0.02 μM are marked with “+++.”)"},
      {"smiles": "CN1CCCCC1C(=O)N1CCN(c2c(F)cncc2NC(=O)c2c(N)nn3cc(F)cnc23)CC1", "note": "(stereo not shown) [I-N-173, 2-amino-6-fluoro-N-(5-fluoro-4-(4-(1-methylpiperidine-2-carbonyl)piperazin-1-yl)pyridin-3-yl)pyrazolo[1,5-a]pyrimidine-3-carboxamide]", "Cisplatin Sensitization Assay": "+++ (Compounds with a Cisplatin sensitization value of <0.02 μM are marked with “+++.”)"},
      {"smiles": "CN1CCOC(C(=O)N2CCN(c3c(F)cncc3NC(=O)c3c(N)nn4cc(F)cnc34)CC2)C1", "note": "(stereo not shown) [I-N-174, 2-amino-6-fluoro-N-(5-fluoro-4-(4-(4-methylmorpholine-2-carbonyl)piperazin-1-yl)pyridin-3-yl)pyrazolo[1,5-a]pyrimidine-3-carboxamide]", "Cisplatin Sensitization Assay": "+++ (Compounds with a Cisplatin sensitization value of <0.02 μM are marked with “+++.”)"},
      {"smiles": "CN1CCC(S(=O)(=O)N2CCN(c3c(F)cncc3NC(=O)c3c(N)nn4cc(F)cnc34)CC2)CC1", "note": "[I-N-175, 2-amino-6-fluoro-N-(5-fluoro-4-(4-((1-methylpiperidin-4-yl)sulfonyl)piperazin-1-yl)pyridin-3-yl)pyrazolo[1,5-a]pyrimidine-3-carboxamide]", "Cisplatin Sensitization Assay": "+++ (Compounds with a Cisplatin sensitization value of <0.02 μM are marked with “+++.”)"},
      {"smiles": "Nc1nn2cc(F)cnc2c1C(=O)Nc1cnccc1N1CCN(S(=O)(=O)C2CC2)CC1", "note": "[I-N-176, 2-amino-N-(4-(4-(cyclopropylsulfonyl)piperazin-1-yl)pyridin-3-yl)-6-fluoropyrazolo[1,5-a]pyrimidine-3-carboxamide]", "Cisplatin Sensitization Assay": "+++ (Compounds with a Cisplatin sensitization value of <0.02 μM are marked with “+++.”)"},
      {"smiles": "Nc1nn2cc(F)cnc2c1C(=O)Nc1cnccc1N1CCN(S(=O)(=O)C2CCOCC2)CC1", "note": "[I-N-177, 2-amino-6-fluoro-N-(4-(4-((tetrahydro-2H-pyran-4-yl)sulfonyl)piperazin-1-yl)pyridin-3-yl)pyrazolo[1,5-a]pyrimidine-3-carboxamide]", "Cisplatin Sensitization Assay": "+++ (Compounds with a Cisplatin sensitization value of <0.02 μM are marked with “+++.”)"},
      {"smiles": "CS(=O)(=O)N1CCN(c2ccncc2NC(=O)c2c(N)nn3cc(F)cnc23)CC1", "note": "[I-N-178, 2-amino-6-fluoro-N-(4-(4-(methylsulfonyl)piperazin-1-yl)pyridin-3-yl)pyrazolo[1,5-a]pyrimidine-3-carboxamide]", "Cisplatin Sensitization Assay": "+++ (Compounds with a Cisplatin sensitization value of <0.02 μM are marked with “+++.”)"},
      {"smiles": "Nc1nn2cc(F)cnc2c1C(=O)Nc1cnccc1N1CCN(S(=O)(=O)C2CCOC2)CC1", "note": "(stereo not shown) [I-N-179, 2-amino-6-fluoro-N-(4-(4-((tetrahydrofuran-3-yl)sulfonyl)piperazin-1-yl)pyridin-3-yl)pyrazolo[1,5-a]pyrimidine-3-carboxamide]", "Cisplatin Sensitization Assay": "+++ (Compounds with a Cisplatin sensitization value of <0.02 μM are marked with “+++.”)"},
      {"smiles": "CN1CCC[C@@H]1C(=O)N1CCN(c2c(F)cncc2NC(=O)c2c(N)nn3cc(F)cnc23)CC1", "note": "[I-N-181, (R)-2-amino-6-fluoro-N-(5-fluoro-4-(4-(1-methylpyrrolidine-2-carbonyl)piperazin-1-yl)pyridin-3-yl)pyrazolo[1,5-a]pyrimidine-3-carboxamide]", "Cisplatin Sensitization Assay": "+++ (Compounds with a Cisplatin sensitization value of <0.02 μM are marked with “+++.”)"},
      {"smiles": "Nc1nn2cc(F)cnc2c1C(=O)Nc1cncc(F)c1N1CCN2C(=O)CC[C@@H]2C1", "note": "[I-N-182, (R)-2-amino-6-fluoro-N-(5-fluoro-4-(6-oxohexahydropyrrolo[1,2-a]pyrazin-2(1H)-yl)pyridin-3-yl)pyrazolo[1,5-a]pyrimidine-3-carboxamide]", "Cisplatin Sensitization Assay": "++ (Compounds with a Cisplatin sensitization value >0.02 μM but <0.2 μM are marked with “++.”)"},
      {"smiles": "CN1CCOC2(CCN(c3ccncc3NC(=O)c3c(N)nn4cc(F)cnc34)CC2)C1", "note": "[I-N-183, 2-amino-6-fluoro-N-(4-(4-methyl-1-oxa-4,9-diazaspiro[5.5]undecan-9-yl)pyridin-3-yl)pyrazolo[1,5-a]pyrimidine-3-carboxamide]", "Cisplatin Sensitization Assay": "+++ (Compounds with a Cisplatin sensitization value of <0.02 μM are marked with “+++.”)"},
      {"smiles": "Nc1nn2cc(F)cnc2c1C(=O)Nc1cncc(F)c1N1CCC(c2nccs2)CC1", "note": "[I-N-184, 2-amino-6-fluoro-N-(5-fluoro-4-(4-(thiazol-2-yl)piperidin-1-yl)pyridin-3-yl)pyrazolo[1,5-a]pyrimidine-3-carboxamide]", "Cisplatin Sensitization Assay": "++ (Compounds with a Cisplatin sensitization value >0.02 μM but <0.2 μM are marked with “++.”)"},
      {"smiles": "CCN1CCCC1C(=O)N1CCN(c2c(F)cncc2NC(=O)c2c(N)nn3cc(F)cnc23)CC1", "note": "(stereo not shown) [I-N-185, 2-amino-N-(4-(4-(1-ethylpyrrolidine-2-carbonyl)piperazin-1-yl)-5-fluoropyridin-3-yl)-6-fluoropyrazolo[1,5-a]pyrimidine-3-carboxamide]", "Cisplatin Sensitization Assay": "++ (Compounds with a Cisplatin sensitization value >0.02 μM but <0.2 μM are marked with “++.”)"},
      {"smiles": "Nc1nn2cc(F)cnc2c1C(=O)Nc1cncc(F)c1N1CCN(C(=O)CN2CCCC2)CC1", "note": "[I-N-187, 2-amino-6-fluoro-N-(5-fluoro-4-(4-(2-(pyrrolidin-1-yl)acetyl)piperazin-1-yl)pyridin-3-yl)pyrazolo[1,5-a]pyrimidine-3-carboxamide]", "Cisplatin Sensitization Assay": "+++ (Compounds with a Cisplatin sensitization value of <0.02 μM are marked with “+++.”)"}
    ]}
  ]
}
